The values below come from patent US20140073793A1, “Germanium-containing camptothecin analogues” (BioNumeric Pharmaceuticals, Inc., priority 2012, published 2014).

One experiment deals with A2780/DX5 cells. Description: cells. It counts as cell-based, human. On the procedure: (§1) Wild type human ovarian cancer cells (A2780/WT) and doxorubicin-resistant human ovarian cancer cells (A2780/DX5) were cultured in RPMI 1640 medium supplemented with 10% fetal bovine serum and 2 mM glutamine, and grown in a 37° C. incubator with 5% CO2. BNP1350 (also designated 7-[2-trimethylsilyl)ethyl]-20(S)-camptothecin; BNP1350; and Karenitecin®); BNP1394 (also designated 7-[2′-trimethylgermanyl]ethyl-20(S) camptothecin; Topotecan; and 9-NH2-camptothecin were synthesized and purified at BioNumerik Pharmaceuticals, Inc., and dissolved in DMSO for use in cytotoxicity experiments where inhibition of cell growth was measured using the sulforhodamine B (SRB) assay to assess cytotoxicity and absorbance at 570 nm (A570) in order to calculate the percentage of cell control (or percent cell survival) SRB assay. See. e.g., Skehan P., Stieng R., Scudiero D., et al. New colorimetric cytotoxicity assay for anticancer-drug screen. J. Natl. Cancer Inst. 82:1107-1112 (1990)).
(§2) Briefly, cells were seeded (500 cells/well in 100 μL volume) to 96-well microliter plates and allowed to attach for 24 hours prior to treatment with BNP1350, BNP1394, Topotecan, and 9-NH2-camptothecin for 2 hours. Following this 2 hour treatment, BNP1350, BNP1394, Topotecan, and 9-NH2-camptothecin were removed, cells were washed with drug-free media (200 μL) and then drug-free media (200 μL) was added to the cells and cells were allowed to continue growing at 37° C. with 5% CO2 before the SRB assay was performed (total experiment time from time of seeding was 5 days, during which a total of five (5) cell-doublings occurred).
(§3) Wild-type human ovarian cancer cells (A2780/WT) and doxorubicin-resistant human ovarian cancer cells (A2780/DX5) were cultured in RPMI 1640 medium supplemented with 10% fetal bovine serum and 2 mM L-glutamine, and grown in a 37° C. incubator with 5% CO2. Population doubling times for the two cell lines used in this study encompassed a total of five cell doublings corresponding to approximately 5 days for A2780/WT and A2780/DX5 cells. Both cell lines were maintained as monolayered cultures in T-25 or T-75 flasks and then seeded to microliter plate wells for experiments described herein.
(§4) In brief, cells were seeded (500 cells/well in 100 μL total volume) into 96-well microliter plates and allowed to attach for 24 hours prior to treatment with BNP1350, BNP1394, Topotecan, or 9-NH2-camptothecin for 2 hours. The aforementioned compounds were dissolved in DMSO for use in cytotoxicity experiments where inhibition of cell growth was measured using the SRB assay.
(§5) Following this 2 hour drug treatment, the BNP1350, BNP1394, Topotecan, and 9-NH2-camptothecin were removed, cells were washed with drug-free media (200 μL) and then drug-free media (200 μL) was added to the cells and cells were allowed to continue growing at 37° C. with 5% CO2 before the SRB assay was performed (total experiment time from time of seeding was 5 days, during which time a total of 5 cell doublings had occurred).
(§6) The sulforhodamine B (SRB) cytotoxicity assay (see, Skehan P, et al., New colorimetric cytotoxicity assay for anticancer-drug screening. J. Natl. Cancer Inst. 82:1107-1112 (1990)) was used to determine the cytotoxic effects of BNP1350, BNP10120 or BNP10121 on cell growth in vitro. Briefly, after the medium was aspirated from individual plate wells, trichloroacetic acid (100 μL of 10.0% solution) was added to each well, and the plates were incubated at 4° C. for at least 1 hour. The plates were washed five-times with water using an automated microplate washer (Model EL 404, Bio-Tek Instruments), SRB solution (100 μL of 0.4 grams SRB dissolved in 100 mL 1.0 percent acetic acid) was added, and plates remained at room temperature for 15 minutes. The plates were then washed five-times using acetic acid (1.0%), air dried, and bound dye was solubilized in Tris base (150 μL, 10 mM). […]

The test system of the next experiment is A2780/WT cells. Briefly: cells. It counts as cell-based, human. How it is done: as §1, §2, §3, §4, §5, §6
Setting [1] is: 2 hour drug treatment, SRB at 5 days, read-out: IC50 Test 1.
Setting [2] is: 2 hour drug treatment, SRB at 5 days, read-out: IC50 Test 2.
[3] abbreviates: 2 hour drug treatment, SRB at 5 days, read-out: IC50 Test 3.
Where [4] appears, read: 2 hour drug treatment, SRB at 5 days, read-out: IC50 Test 4.
Where [5] appears, read: 2 hour drug treatment, SRB at 5 days, read-out: IC50 Test 5.
[6] abbreviates: average of the tests, read-out: IC50 Average.
The mark [7] stands for this setting: 2 hour drug treatment, SRB at 5 days, read-out: IC50 Test 6.
Where [8] appears, read: average of Tests 1-6, read-out: IC50 Average.
The mark [9] stands for this setting: Homo sapiens, 2 hour drug treatment, SRB at 5 days, read-out: IC50 Test 1.
The mark [10] stands for this setting: Homo sapiens, 2 hour drug treatment, SRB at 5 days, read-out: IC50 Test 2.
Setting [11] is: Homo sapiens, 2 hour drug treatment, SRB at 5 days, read-out: IC50 Test 3.
Setting [12] is: Homo sapiens, 2 hour drug treatment, SRB at 5 days, read-out: IC50 Test 4.
[13] abbreviates: Homo sapiens, 2 hour drug treatment, SRB at 5 days, read-out: IC50 Test 5.

Like-named read-outs stand apart in the source and are kept apart here.

One may read the IC50 as the concentration at which inhibition is half-maximal. Consider `CC[C@@]1(O)C(=O)OCc2c1cc1n(c2=O)Cc2cc3c(N)cccc3nc2-1` [9-NH2-camptothecin, 9-amino camptothecin], for which the “inhibition of cell growth (in words)” value with A2780/DX5 cells and with A2780/WT cells was “inhibitors” each time. Also, the IC50 turned out to be 600 nM in the experiment with A2780/DX5 cells (setting [1]); 250 nM in the experiment with A2780/DX5 cells (setting [2]); 250 nM with A2780/DX5 cells (setting [3]); 550 nM in the experiment on A2780/DX5 cells (setting [4]); 600 nM with A2780/DX5 cells (setting [5]); 450 nM in the experiment with A2780/DX5 cells (setting [6]). Moreover, the IC50 came out at 150 nM with A2780/WT cells (setting [1]); 90 nM in the experiment on A2780/WT cells (setting [2]); 150 nM with A2780/WT cells (setting [3]); 200 nM with A2780/WT cells (setting [4]); 250 nM in the experiment with A2780/WT cells (setting [5]); 90 nM in the experiment on A2780/WT cells (setting [7]). The IC50 in the experiment on A2780/WT cells (setting [8]) stood at 155 nM.

For the molecule `CC[C@@]1(O)C(=O)OCc2c1cc1n(c2=O)Cc2c-1nc1ccccc1c2CC[Si](C)(C)C` [BNP1350], the “IC50 values (in words)” value in the experiment with A2780/DX5 cells and in the experiment with A2780/WT cells was “nanomolar” throughout. Further, the “inhibition of cell growth (in words)” value with A2780/DX5 cells and in the experiment with A2780/WT cells was “inhibitors” in each case. Besides, the IC50 with A2780/DX5 cells (setting [1]) is 15 nM; in the experiment with A2780/DX5 cells (setting [2]), 15 nM; in the experiment on A2780/DX5 cells (setting [3]), 15 nM; with A2780/DX5 cells (setting [4]), 24 nM; in the experiment with A2780/DX5 cells (setting [5]), 10 nM; in the experiment on A2780/DX5 cells (setting [6]), 16 nM. Further, the IC50 in the experiment with A2780/WT cells (setting [1]) was determined as 15 nM; with A2780/WT cells (setting [2]) it was 15 nM; in the experiment with A2780/WT cells (setting [3]), 15 nM; in the experiment on A2780/WT cells (setting [4]), 20 nM; in the experiment on A2780/WT cells (setting [5]), 13 nM; with A2780/WT cells (setting [7]), 16 nM. The IC50 in the experiment with A2780/WT cells (setting [8]) amounted to 15 nM.

Take `CC[C@@]1(O)C(=O)OCc2c1cc1n(c2=O)Cc2c-1nc1ccccc1c2C[CH2][Ge]([CH3])([CH3])[CH3]` [BNP1394, 7-[2′-trimethylgermanyl]ethyl-20(S) camptothecin]: in the experiment with A2780/DX5 cells, the “IC50 values (in words)” value is “nanomolar” and the “inhibition of cell growth (in words)” value is recorded as “inhibitors”. Also, in the experiment on A2780/WT cells, the “IC50 values (in words)” value was “nanomolar” and the “inhibition of cell growth (in words)” value was “inhibitors”.

With `CC[C@@]1(O)C(=O)OCc2c1cc1n(c2=O)Cc2cc3c(CN(C)C)c(O)ccc3nc2-1` [Topotecan, 9-dimethylaminomethyl-10-hydroxy camptothecin], the “inhibition of cell growth (in words)” value in the experiment on A2780/DX5 cells and with A2780/WT cells was “inhibitors” throughout. The IC50 in the experiment on A2780/DX5 cells (setting [9]) amounted to 550 nM; in the experiment on A2780/DX5 cells (setting [10]), 800 nM; with A2780/DX5 cells (setting [11]), 2000 nM; with A2780/DX5 cells (setting [12]) it was 1000 nM; in the experiment on A2780/DX5 cells (setting [13]) it was 2000 nM; in the experiment on A2780/DX5 cells (Homo sapiens, average of the tests, read-out: IC50 Average), 1270 nM. Besides, the half-maximal inhibitory concentration (IC50) was 350 nM with A2780/WT cells (setting [9]); 200 nM with A2780/WT cells (setting [10]); 300 nM in the experiment with A2780/WT cells (setting [11]); 600 nM in the experiment on A2780/WT cells (setting [12]); 900 nM in the experiment with A2780/WT cells (setting [13]); 600 nM in the experiment with A2780/WT cells (Homo sapiens, 2 hour drug treatment, SRB at 5 days, read-out: IC50 Test 6). Also, in the experiment on A2780/WT cells (Homo sapiens, average of Tests 1-6, read-out: IC50 Average), the 50% inhibitory concentration (IC50) is 492 nM.
